Experimental data as given in the supplement of paper PMC10331698.
± gives the standard deviation of the averaged measurements.

Key:
Assay in all cases: level (log10 ratio to DMSO vehicle control); higher = higher biomarker level / cell amount than vehicle control
[1] = compound: O=S(=O)(O)C(F)(F)C(F)(F)C(F)(F)C(F)(F)C(F)(F)C(F)(F)C(F)(F)F [Perfluoroheptanesulfonic acid] (in DMSO)
Procedure: (§1)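 BioMAP Diversity Plus panel of 12 human primary cell co-culture systems (3C, 4H, LPS, SAg, BT, BF4T, BE3C, CASM3C, HDF3CGF, KF3CT, MyoF, Mphg). Compounds were added 1 h before stimulation and left for 24 h (MyoF 48 h; BT 72 h for soluble read-outs or 6 d for IgG). Biomarkers were read by ELISA, cytotoxicity by SRB, PBMC viability and proliferation by Alamar Blue. Each well value was divided by the mean of 8 DMSO control wells on the same plate and log10 transformed; duplicate blinded samples were tested at 4 concentrations.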

[2] = compound: C=C(C)C(=O)OCCC(F)(F)C(F)(F)C(F)(F)C(F)(F)C(F)(F)C(F)(F)C(F)(F)C(F)(F)F [8:2 Fluorotelomer methacrylate] (in DMSO)
Procedure: as §1

[3] = compound: OCC(F)(F)OC(F)(F)C(F)(F)OC(F)(F)C(F)(F)OC(F)(F)CO [1H,1H,11H,11H-Perfluorotetraethylene glycol] (in DMSO)
Procedure: as §1

[4] = compound: OCC(F)(F)C(F)(F)C(F)(F)C(F)F [1H,1H,5H-Perfluoropentanol] (in DMSO)
Procedure: as §1

[5] = compound: OCC(F)(F)C(F)(F)C(F)(F)C(F)(F)C(F)(F)C(F)(F)CO [1H,1H,8H,8H-Perfluorooctane-1,8-diol] (in DMSO)
Procedure: as §1

Octafluoroadipic acid = compound: O=C(O)C(F)(F)C(F)(F)C(F)(F)C(F)(F)C(=O)O [Octafluoroadipic acid] (in DMSO)
Procedure: as §1

Perfluorononanoic acid = compound: O=C(O)C(F)(F)C(F)(F)C(F)(F)C(F)(F)C(F)(F)C(F)(F)C(F)(F)C(F)(F)F [Perfluorononanoic acid] (in DMSO)
Procedure: as §1

Test System | level (log10) ([1]; 1500 nM) | level (log10) ([1]; 4400 nM) | level (log10) ([1]; 13000 nM) | level (log10) ([1]; 40000 nM) | level (log10) ([2]; 6700 nM) | level (log10) ([2]; 20000 nM) | level (log10) ([3]; 6700 nM) | level (log10) ([3]; 20000 nM) | level (log10) ([3]; 60000 nM) | level (log10) ([4]; 6700 nM) | level (log10) ([4]; 20000 nM) | level (log10) ([4]; 60000 nM) | level (log10) ([5]; 6700 nM) | level (log10) ([5]; 20000 nM) | level (log10) ([5]; 60000 nM) | level (log10) (Octafluoroadipic acid; 6700 nM) | level (log10) (Octafluoroadipic acid; 20000 nM) | level (log10) (Octafluoroadipic acid; 60000 nM) | level (log10) (Perfluorononanoic acid; 6700 nM) | level (log10) (Perfluorononanoic acid; 20000 nM)
MyoF:MMP-1 | 0.0105 ± 0.039 | -0.0055 ± 0.015 | -0.03 ± 0.0085 | 0.01 ± 0.044 | -0.015 ± 0.02 | -0.0075 ± 0.0021 | 0 ± 0.027 | -0.0085 ± 0.015 | 0.0465 ± 0.083 | -0.054 ± 0.028 | -0.01 ± 0.052 | 0.093 ± 0.13 | -0.02 ± 0.031 | -0.0145 ± 0.022 | 0.028 ± 0.12 | -0.013 ± 0.025 | -0.0175 ± 0.0035 | 0.0125 ± 0.03 | -0.025 ± 0.031 | 0.0665 ± 0.0021
MyoF:PAI-I | 0.008 ± 0.0085 | 0.0085 ± 0.00071 | 0.005 ± 0.0028 | 0.019 ± 0.023 | 0.0005 ± 0.0078 | -0.013 ± 0.0071 | -0.01 ± 0.02 | -0.0135 ± 0.013 | -0.01 ± 0.018 | -0.0265 ± 0.0078 | -0.018 ± 0.031 | -0.0045 ± 0.0021 | -0.0015 ± 0.0064 | -0.004 ± 0.0028 | 0.0005 ± 0.011 | -0.012 ± 0.0099 | -0.01 ± 0.017 | 0.001 ± 0.0085 | -0.01 ± 0.028 | 0.0105 ± 0.03
MyoF:SRB | -0.009 ± 0.0099 | 0.002 ± 0.0028 | 0.002 ± 0.0014 | -0.007 ± 0.0042 | 0.0025 ± 0.0064 | -0.0015 ± 0.005 | -0.0065 ± 0.00071 | -0.0145 ± 0.00071 | -0.0445 ± 0.015 | -0.0025 ± 0.0078 | -0.004 ± 0.016 | 0.002 ± 0.0071 | -0.0095 ± 0.012 | -0.0145 ± 0.0064 | -0.0305 ± 0.0021 | -0.0105 ± 0.0064 | -0.005 ± 0.013 | -0.0015 ± 0.00071 | 0.0025 ± 0.0064 | -0.0155 ± 0.0021
MyoF:TIMP-1 | 0.021 ± 0.04 | 0.013 ± 0.061 | 0.033 ± 0.054 | 0.11 ± 0.0099 | 0.0115 ± 0.08 | 0.0185 ± 0.026 | -0.0035 ± 0.012 | 0.017 | 0.0285 ± 0.005 | 0.0015 ± 0.026 | 0.004 ± 0.054 | 0.039 ± 0.027 | -0.0125 ± 0.042 | 0.0285 ± 0.042 | 0.0735 ± 0.035 | -0.0155 ± 0.026 | -0.02 ± 0.025 | -0.0485 ± 0.019 | 0.0025 ± 0.03 | -0.034 ± 0.033
MyoF:alpha-SM Actin | 0.0025 ± 0.1 | 0.0035 ± 0.077 | -0.021 ± 0.064 | 0.0025 ± 0.069 | -0.009 ± 0.081 | 0.0025 ± 0.079 | -0.0125 ± 0.026 | -0.057 ± 0.0042 | -0.167 ± 0.037 | -0.04 ± 0.059 | -0.0045 ± 0.018 | 0 ± 0.017 | 0.0075 ± 0.005 | 0.0035 ± 0.011 | -0.005 ± 0.0028 | 0.007 ± 0.044 | -0.0105 ± 0.052 | 0.007 ± 0.033 | -0.0165 ± 0.028 | -0.0645 ± 0.042
MyoF:bFGF | 0.021 ± 0.0071 | 0.0185 ± 0.005 | 0.0105 ± 0.00071 | 0.039 ± 0.02 | -0.0105 ± 0.00071 | 0.011 ± 0.014 | 0.0045 ± 0.00071 | 0.0045 ± 0.0092 | 0.004 ± 0.011 | -0.02 ± 0.016 | 0.0115 ± 0.026 | 0.0135 ± 0.012 | 0.009 ± 0.014 | 0.0145 ± 0.0021 | 0.014 ± 0.014 | -0.0035 ± 0.00071 | 0.002 ± 0.0057 | 0.0055 ± 0.0092 | -0.0025 ± 0.025 | 0.015 ± 0.014
